Test results published in ChEMBL document CHEMBL3091347, “Comparison of Multiple Linear Regressions and Neural Networks based QSAR models for the design of new antitubercular compounds” (Eur J Med Chem, 2013).
Values after ≈ are worked out from the molar mass of the structure shown.

Key:
[1] = test system: Mycobacterium tuberculosis; assay: Antitubercular activity against Mycobacterium tuberculosis; format: functional; details: for MIC: Mycobacterium tuberculosis
[2] = Lipophilicity, log P of the compound; details: octanol/water

With NNC(=O)c1ccc([N+](=O)[O-])o1 the “log(1/MIC)” value [1] was 0.1, the MIC [1] was 0.8 µg/mL (≈ 4.68 µM) and the logP ([2]; logP) was -0.396.

In the case of NNC(=O)c1ccccc1[N+](=O)[O-], the “log(1/MIC)” value [1] is reported as -2.48, the MIC [1] is reported as 300 µg/mL (≈ 1660 µM) and the logP ([2]; logP) is reported as -1.1.

With NNC(=O)c1c[nH]cn1 the “log(1/MIC)” value [1] was -0.9, the MIC [1] was 8 µg/mL (≈ 63.4 µM) and the logP ([2]; logP) was -2.85.

For NNC(=O)c1ccnc2ccccc12, the “log(1/MIC)” value [1] was -1.9, the MIC [1] was 80 µg/mL (≈ 427 µM) and the logP ([2]; logP) was -1.35.

In the case of NNC(=O)c1cccc([N+](=O)[O-])c1, the “log(1/MIC)” value [1] is reported as 0.22, the MIC [1] is reported as 0.6 µg/mL (≈ 3.31 µM) and the logP ([2]; logP) is reported as -1.1.

In the case of CN(C)C(=O)N1CCC(C(=O)NN)CC1, the “log(1/MIC)” value [1] is reported as -2.78, the MIC [1] is reported as 600 µg/mL (≈ 2800 µM) and the logP ([2]; logP) is reported as -3.12.

With CC(=O)NNC(=O)c1ccncc1 the “log(1/MIC)” value [1] was -1.18, the MIC [1] was 15 µg/mL (≈ 83.7 µM) and the logP ([2]; logP) was -3.45.

For CC(=O)N(Nc1ccccc1)c1ccccc1, the “log(1/MIC)” value [1] was -2, the MIC [1] was 100 µg/mL (≈ 442 µM) and the logP ([2]; logP) was 1.31.

In the case of O=C(NNC(=O)c1ccco1)c1ccco1, the “log(1/MIC)” value [1] is reported as -2, the MIC [1] is reported as 100 µg/mL (≈ 454 µM) and the logP ([2]; logP) is reported as 1.38.

In the case of NNC(=O)CN1CSC(N)=N1, the “log(1/MIC)” value [1] is reported as -2.48, the MIC [1] is reported as 300 µg/mL (≈ 1710 µM) and the logP [2] is reported as -4.033.

In the case of C/C(=N\NC(=O)c1ccncc1)c1cccc(CN2CCCCC2)c1O, the “log(1/MIC)” value [1] is reported as -0.21, the MIC [1] is reported as 1.62 µg/mL (≈ 4.6 µM) and the logP ([2]; logP) is reported as 2.55.

With C/C(=N\NC(=O)c1ccncc1)c1cccc(CN2CCN(C)CC2)c1O the “log(1/MIC)” value [1] was -0.52, the MIC [1] was 3.28 µg/mL (≈ 8.93 µM) and the logP ([2]; logP) was 1.99.

In the case of CC(C)=NNC(=O)c1cccs1, the “log(1/MIC)” value [1] is reported as 0.35, the MIC [1] is reported as 0.45 µg/mL (≈ 2.47 µM) and the logP ([2]; logP) is reported as -0.404.

For CN(C)NC(=O)c1ccco1, the “log(1/MIC)” value [1] was -2.48, the MIC [1] was 300 µg/mL (≈ 1950 µM) and the logP ([2]; logP) was 0.653.

With CC(C)/C=N\NC(=O)c1ccco1 the “log(1/MIC)” value [1] was 0.82, the MIC [1] was 0.15 µg/mL (≈ 0.832 µM) and the logP ([2]; logP) was 1.19.

For O=C(N/N=C/C(O)C(O)C(O)C(O)CO)c1ccco1 (stereo not given), the “log(1/MIC)” value [1] was -0.78, the MIC [1] was 6 µg/mL (≈ 20.8 µM) and the logP ([2]; logP) was -3.86.

In the case of NNC(=O)C1CCCO1 (stereo not given), the “log(1/MIC)” value [1] is reported as 0.52, the MIC [1] is reported as 0.3 µg/mL (≈ 2.31 µM) and the logP ([2]; logP) is reported as -2.12.

With NNC(=O)c1cccs1 the “log(1/MIC)” value [1] was -0.9, the MIC [1] was 8 µg/mL (≈ 56.3 µM) and the logP ([2]; logP) was -1.2.

With NNS(=O)(=O)c1ccc(N)cc1 the “log(1/MIC)” value [1] was -1.4, the MIC [1] was 25 µg/mL (≈ 134 µM) and the logP ([2]; logP) was -1.85.

With CC(=O)NNC(C)=O the “log(1/MIC)” value [1] was -2.78, the MIC [1] was 600 µg/mL (≈ 5170 µM) and the logP ([2]; logP) was -3.91.

For CON1C(=O)C(=O)N1c1ccc([N+](=O)[O-])cc1, the “log(1/MIC)” value [1] was 1.52, the MIC [1] was 0.03 µg/mL (≈ 0.126 µM) and the logP ([2]; logP) was 0.963.

In the case of Nc1ccc(S(=O)(=O)NNC(=O)c2ccncc2)cc1, the “log(1/MIC)” value [1] is reported as -2.78, the MIC [1] is reported as 600 µg/mL (≈ 2050 µM) and the logP ([2]; logP) is reported as -2.51.

For Cc1ncnc(O)c1C(=O)NN, the “log(1/MIC)” value [1] was -2.6, the MIC [1] was 400 µg/mL (≈ 2380 µM) and the logP ([2]; logP) was -2.88.

In the case of NNC(=O)c1ccnc(Cl)c1, the “log(1/MIC)” value [1] is reported as -1.83, the MIC [1] is reported as 67.3 µg/mL (≈ 392 µM) and the logP ([2]; logP) is reported as -1.61.

For NNC(=O)c1ccnc([N+](=O)[O-])c1, the “log(1/MIC)” value [1] was -1.83, the MIC [1] was 67.6 µg/mL (≈ 371 µM) and the logP ([2]; logP) was -2.21.

With NNC(=O)c1ccnc(-c2ccccc2)c1 the “log(1/MIC)” value [1] was -1.03, the MIC [1] was 10.7 µg/mL (≈ 50 µM) and the logP ([2]; logP) was -0.634.

With NNC(=O)c1ccccn1 the “log(1/MIC)” value [1] was 0.82, the MIC [1] was 0.15 µg/mL (≈ 1.09 µM) and the logP ([2]; logP) was -1.95.

With NNC(=O)c1ccnc(F)c1 the “log(1/MIC)” value [1] was -1.61, the MIC [1] was 40.3 µg/mL (≈ 260 µM) and the logP ([2]; logP) was -2.18.

For NNC(=O)c1c[nH]c(S)n1, the “log(1/MIC)” value [1] was -2.4, the MIC [1] was 250 µg/mL (≈ 1580 µM) and the logP ([2]; logP) was -2.26.

In the case of Cc1cnccc1C(=O)NN, the “log(1/MIC)” value [1] is reported as -2.3, the MIC [1] is reported as 200 µg/mL (≈ 1320 µM) and the logP ([2]; logP) is reported as -1.67.

In the case of NNC(=O)Cc1ccccc1, the “log(1/MIC)” value [1] is reported as -1.08, the MIC [1] is reported as 12 µg/mL (≈ 79.9 µM) and the logP ([2]; logP) is reported as -1.22.

With NNC(=O)c1ccco1 the “log(1/MIC)” value [1] was 1.22, the MIC [1] was 0.06 µg/mL (≈ 0.476 µM) and the logP ([2]; logP) was -0.139.

For NNC(=O)c1ccnc(Br)c1, the “log(1/MIC)” value [1] was -2.12, the MIC [1] was 133 µg/mL (≈ 616 µM) and the logP ([2]; logP) was -1.46.

In the case of CN1CCC(C(=O)NN)CC1, the “log(1/MIC)” value [1] is reported as -2.78, the MIC [1] is reported as 600 µg/mL (≈ 3820 µM) and the logP ([2]; logP) is reported as -2.49.

In the case of O=C(NO)c1ccncc1, the “log(1/MIC)” value [1] is reported as -2.08, the MIC [1] is reported as 120 µg/mL (≈ 869 µM) and the logP ([2]; logP) is reported as -2.65.
